Test results as given in ChEMBL document CHEMBL4393707, “Synthesis and evaluation of new quinazolin-4(3H)-one derivatives as potent antibacterial agents against multidrug resistant Staphylococcus aureus and Mycobacterium tuberculosis” (Eur J Med Chem, 2019).
Activity calls are given as the source filed them.

How the values were obtained:
Pseudomonas aeruginosa = test: Antibacterial activity against Pseudomonas aeruginosa ATCC 27853 incubated for 16 to 18 hrs by broth microdilution assay; type: functional
Acinetobacter baumannii = test: Antibacterial activity against Acinetobacter baumannii BAA1605 incubated for 16 to 18 hrs by broth microdilution assay; type: functional
[1] = system: Mycobacterium tuberculosis; test: Antitubercular activity against Mycobacterium tuberculosis H37Rv after 7 days by resazurin dye based assay; type: functional; conditions: 168 h
Staphylococcus aureus [2] = test: Antibacterial activity against Staphylococcus aureus ATCC 29213 incubated for 16 to 18 hrs by broth microdilution assay; type: functional
Klebsiella pneumoniae = test: Antibacterial activity against Klebsiella pneumoniae ATCC BAA-1705 incubated for 16 to 18 hrs by broth microdilution assay; type: functional
Escherichia coli = test: Antibacterial activity against Escherichia coli ATCC 25922 incubated for 16 to 18 hrs by broth microdilution assay; type: functional
Staphylococcus aureus [3] = test: Antibacterial activity against vancomycin-resistant Staphylococcus aureus VRS1 incubated for 16 to 18 hrs by broth microdilution assay; type: functional
Staphylococcus aureus [4] = test: Antibacterial activity against Staphylococcus aureus ATCC 29213 assessed as post antibiotic effect time at MIC incubated for 1 hr followed by compound washout and measured at 1 hr intervals (reference value: 0 hrs); type: functional
Staphylococcus aureus [5] = test: Antibacterial activity against Staphylococcus aureus ATCC 29213 assessed as time required to increase 1 log10 CFU at MIC incubated for 1 hr followed by compound washout and measured at 1 hr intervals (reference value: 2 hrs); type: functional
Staphylococcus aureus [6] = test: Antimicrobial activity against Staphylococcus aureus ATCC 29213 infected in BALB/c mouse model of neutropenic thigh infection assessed reduction in bacterial levels in thigh at 25 mg/kg, ip administered 3 hrs post infection twice at interval of 3 hrs between injections and measured after 24 hrs; type: functional, organism-based
Staphylococcus aureus [7] = test: Antibacterial activity against Staphylococcus aureus ATCC 29213 assessed as time required to increase 1 log10 CFU at 10 times MIC incubated for 1 hr followed by compound washout and measured at 1 hr intervals (reference value: 2 hrs); type: functional
Staphylococcus aureus [8] = test: Antibacterial activity against vancomycin-resistant Staphylococcus aureus VRS4 incubated for 16 to 18 hrs by broth microdilution assay; type: functional
Staphylococcus aureus [9] = test: Antibacterial activity against Staphylococcus aureus ATCC 29213 assessed as post antibiotic effect time at 10 times MIC incubated for 1 hr followed by compound washout and measured at 1 hr intervals (reference value: 0 hrs); type: functional
Staphylococcus aureus [10] = test: Antibacterial activity against vancomycin-resistant Staphylococcus aureus VRS12 incubated for 16 to 18 hrs by broth microdilution assay; type: functional
Staphylococcus aureus [11] = test: Antibiofilm activity against Staphylococcus aureus ATCC 29213 at 10 times MIC incubated 48 hrs by crystal violet staining based assay relative to control; type: functional
[12] = Selectivity index, ratio of CC50 for African green monkey Vero cells to MIC for Mycobacterium tuberculosis H37Rv; type: toxicity; conditions: read-out: Selectivity Index
[13] = Cytotoxicity against African green monkey Vero cells assessed as reduction in cell viability after 72 hrs by MTT assay; type: cell-based; conditions: chlorocebus sabaeus

COC(=O)Cn1c(/C=C/c2ccc(C#N)cc2)nc2ccccc2c1=O
> 64 µg/mL: MIC (Pseudomonas aeruginosa) | MIC (Acinetobacter baumannii) | MIC [1] | MIC (Staphylococcus aureus [2]) | MIC (Klebsiella pneumoniae) | MIC (Escherichia coli)

CC(C)(C)c1ccc(-n2c(/C=C/c3ccc(C#N)cc3)nc3ccccc3c2=O)cc1
> 64 µg/mL: MIC (Pseudomonas aeruginosa) | MIC (Acinetobacter baumannii) | MIC [1] | MIC (Staphylococcus aureus [2]) | MIC (Klebsiella pneumoniae) | MIC (Escherichia coli)

Cc1nc2ccc(-c3ccc(F)cc3)cc2c(=O)n1-c1cccc(Cl)c1
> 64 µg/mL: MIC (Pseudomonas aeruginosa) | MIC (Acinetobacter baumannii) | MIC [1] | MIC (Staphylococcus aureus [2]) | MIC (Klebsiella pneumoniae) | MIC (Escherichia coli)

CN[C@H](CC(C)C)C(=O)N[C@H]1C(=O)N[C@@H](CC(N)=O)C(=O)N[C@H]2C(=O)N[C@H]3C(=O)N[C@H](C(=O)N[C@H](C(=O)O)c4cc(O)cc(O)c4-c4cc3ccc4O)[C@H](O)c3ccc(c(Cl)c3)Oc3cc2cc(c3O[C@@H]2O[C@H](CO)[C@@H](O)[C@H](O)[C@H]2O[C@H]2C[C@](C)(N)[C@H](O)[C@H](C)O2)Oc2ccc(cc2Cl)[C@H]1O [VANCOMYCIN]
1 h: Time (Staphylococcus aureus [4])
3 h: Time (Staphylococcus aureus [5])
> 64 µg/mL: MIC (Staphylococcus aureus [3]) | MIC (Staphylococcus aureus [8]) | MIC (Staphylococcus aureus [10])
4 h: Time (Staphylococcus aureus [7])
active: Activity (Staphylococcus aureus [6])
7.7%: Activity (Staphylococcus aureus [11])
2 h: Time (Staphylococcus aureus [9])

COc1ccc(-c2cn(-c3ccc4c(=O)n(-c5ccccc5)c(/C=C/c5ccc(C#N)cc5)nc4c3)nn2)cc1
> 64 µg/mL: MIC (Pseudomonas aeruginosa) | MIC (Acinetobacter baumannii) | MIC [1] | MIC (Staphylococcus aureus [2]) | MIC (Klebsiella pneumoniae) | MIC (Escherichia coli)

C#CCNc1ccc2c(=O)n(-c3ccccc3)c(C)nc2c1
4 µg/mL: MIC [1]
> 25: selectivity ratio [12]
> 64 µg/mL: MIC (Pseudomonas aeruginosa) | MIC (Acinetobacter baumannii) | MIC (Staphylococcus aureus [2]) | MIC (Klebsiella pneumoniae) | MIC (Escherichia coli)
> 100 µg/mL: CC50 at 72 h [13]

N#Cc1ccc(/C=C/c2nc3ccc(OCc4cn(-c5ccc(F)c(Cl)c5)nn4)cc3c(=O)n2Cc2ccccc2)cc1
> 64 µg/mL: MIC (Pseudomonas aeruginosa) | MIC (Acinetobacter baumannii) | MIC [1] | MIC (Staphylococcus aureus [2]) | MIC (Klebsiella pneumoniae) | MIC (Escherichia coli)

Cc1nc2cc(-n3cc(COc4ccc5nc(C)n(-c6ccccc6)c(=O)c5c4)nn3)ccc2c(=O)n1-c1ccccc1
> 64 µg/mL: MIC (Pseudomonas aeruginosa) | MIC (Acinetobacter baumannii) | MIC [1] | MIC (Staphylococcus aureus [2]) | MIC (Klebsiella pneumoniae) | MIC (Escherichia coli)

Cc1cc(-n2cc(CNc3ccc4c(=O)n(-c5ccccc5)c(C)nc4c3)nn2)cc(C)c1C
> 64 µg/mL: MIC (Pseudomonas aeruginosa) | MIC (Acinetobacter baumannii) | MIC [1] | MIC (Staphylococcus aureus [2]) | MIC (Klebsiella pneumoniae) | MIC (Escherichia coli)

Cc1nc2ccc(-c3ccccc3)cc2c(=O)n1-c1ccccc1
> 64 µg/mL: MIC (Pseudomonas aeruginosa) | MIC (Acinetobacter baumannii) | MIC [1] | MIC (Staphylococcus aureus [2]) | MIC (Klebsiella pneumoniae) | MIC (Escherichia coli)

Cc1nc2cc(-c3ccccc3)ccc2c(=O)n1-c1cccc(Cl)c1
16 µg/mL: MIC [1]
12.5 µg/mL: CC50 at 72 h [13]
0.78: selectivity ratio [12]
> 64 µg/mL: MIC (Pseudomonas aeruginosa) | MIC (Acinetobacter baumannii) | MIC (Staphylococcus aureus [2]) | MIC (Klebsiella pneumoniae) | MIC (Escherichia coli)

Cc1ccc(-c2cn(-c3ccc4c(=O)n(-c5ccccc5)c(C)nc4c3)nn2)cc1
> 64 µg/mL: MIC (Pseudomonas aeruginosa) | MIC (Acinetobacter baumannii) | MIC [1] | MIC (Staphylococcus aureus [2]) | MIC (Klebsiella pneumoniae) | MIC (Escherichia coli)
